# Experimental data: PMC12481569, “Novltex: A New Class of Antibiotics with Potent Activity against Multidrug-Resistant Bacterial Pathogens–Design, Synthesis, and Biological Evaluation” (Journal of Medicinal Chemistry, 2025)
# Read-outs that look alike come from different tables or passages of the source.
# Key:
# [1] = test system: Multidrug-Resistant (MDR) E. faecium; assay: microbe, parasite or virus in culture; conditions: 24 h; for MIC: Enterococcus faecium
# Procedure: (§1) We further evaluated analogue 12 against multidrug-resistant (MDR) strains of S. aureus (acquired from the NARSA collection) and MDR E. faecium (acquired from International Health Management Associates, IHMA, Europe Sarl), comparing its activity to various classes of clinically used antibiotics (Table ).
# (§2) MICs were performed as previously reported 4. For MIC testing all peptides were dissolved in DMSO.
# (§3) Bacterial cultures were grown overnight on Mueller-Hinton Agar (MHA) plates and adjusted to a final inoculum of 10^5 – 10^6 CFU/mL. 100 µl of ino culum in Meuller -Hinton broth (MHB) was mixed with equal volume of peptides (dissolved in MHB) at 2x their concentration in a 96 well plate . For daptomycin MIC determination, the same protocol was followed with the addition of 50 mg/L calcium chloride to the medium. MIC values were determined in the media contain ing polysorbate 80 (0.002%, v/v) to prevent non -specific adsorption of the peptides to plastic surfaces. The final peptides concentrations ranged from 0.0625 – 32 µg/mL. The 96 well plates were then incubated at 37 °C for 24 h. All the experiments were performed in two independent duplicates and the MIC was determined as the lowest concentration in which no visible growth was observed.
# (§4) Antibiotics MIC break points ( µg/mL)
# (§5) Table. S4: Susceptibility cut-off values (MIC breakpoints) for various clinical antibiotics. […]
# [2] = test system: Multidrug-Resistant (MDR) S. aureus; assay: microbe, parasite or virus in culture; conditions: 24 h; for MIC: Staphylococcus aureus
# Procedure: as §1, §2, §3, §4, §5
# [3] = Lipid II binding, spot-on-lawn assays on S. aureus ATCC 33591; parameters: species or system Staphylococcus aureus; conditions: lipid II (300 μM, 2 μL) at the edge of the antibiotic halo, overnight 37 °C, duplicates
# Source text: 6 Spot-on-lawn assays to evaluate binding of Lipid II with analogue 12 on S. aureus ATCC 33591. (A) Analogue 12 was premixed with increasing ratios of lipid II (0.5 to 4 equiv) and spotted onto a seeded lawn of S. aureus 33591. Lipid II and analogue 12 were also spotted independently. The position of the analogue 12–lipid II mixture is marked in red. (B) Daptomycin was used as a negative control. Asterisks denote the positions of analogue 12 (black), lipid II (blue), and daptomycin (green) additions.
# Analogue 12 was premixed with increasing ratios of lipid II (0.5 to 4 equiv) for 10 min prior to spotting onto agar plates seeded with a lawn of S. aureus ATCC 33591 and incubated overnight.
# XII. Lipid II binding determination of analogue 12
# Previously reported methods were used to determine the lipid II binding of analogue 126,7. The lipid II used in this study was prepared by chemical synthesis and its preparation and purification has been […]
# A: An overnight culture of S. aureus ATCC 33591 was added to LB agar (45 °C) at a final concentration of 0.1% (vol/vol) and pour-plated into 90 mm petri dishes. Binding of 12 to purified lipid II was assessed using a spot-on-lawn assay. Premixed solutions (5 µL) containing analogue 12 (8 µg) with varying concentration of lipid II were spotted onto the agar, alongside individual controls of 12 and lipid II.
# After drying, plates were incubated overnight at 37 °C. This assay was performed in duplicates.
# B: To assess the interaction between analogue 12 and lipid II, a culture of S. aureus ATCC 33591 was grown overnight in LB broth and inoculated into LB agar at a final concentration of 1% (v/v) at 45°C.
# This mixture was evenly distributed into 90mm petri dishes. Antibiotic inhibition haloes were previously determined by spotting analogue 12 and daptomycin (5 μL,8 µg/mL) onto agar plates and measuring the diameter of the halo after overnight incubation at 37 °C . The binding affinity of analogue 12 and lipid II was later examined by applying purified lipid II (300 μM, 2 μL) to the edge of the antibiotic halo. Analogue 12 and Daptomycin were applied to the inoculated agar plate at a spaced distance, once the antimicrobial solution drops had dried, lipid II was spotted on the edge of the inhibition halo. The plates were then incubated overnight at 37 °C. […]
# MRSA ATCC 33591 [4] = assay: microbe, parasite or virus in culture; format: cell-based, Staphylococcus aureus; conditions: Staphylococcus aureus, 24 h, read-out: MIC against MRSA ATCC 33591
# Procedure: as §2
# as §3, with “observed. […]” for “observed.”
# MRSA ATCC 33591 [5] = assay: Time-kill kinetics; format: cell-based, Staphylococcus aureus; conditions: 5 μg/mL, MHB with 0.002% polysorbate 80, 37 °C, two independent experiments in duplicate
# Procedure: Early-stage time-kill kinetics for analogue 12 against MRSA ATCC 33591 were performed using vancomycin as a control, following the protocol described in Section VIII, Supporting Information.
# 3 Time-kill kinetics of Novltex analogue 12 and clinical antibiotic (vancomycin) against MRSA 33591. […] Results are the mean ± SD of two independent experiments performed in duplicate.
# as §2, §3, §4
# Table. […]
Compound,"MIC, Enterococcus faecium 1563254 ([1]; MDR clinical isolate 1563254, MHB, 0.002% polysorbate 80, 37 °C, daptomycin with 50 mg/L calcium chloride) [µg/mL]","MIC, Enterococcus faecium 1581582 ([1]; MDR clinical isolate 1581582, MHB, 0.002% polysorbate 80, 37 °C, daptomycin with 50 mg/L calcium chloride) [µg/mL]","MIC, Enterococcus faecium 1766686 ([1]; MDR clinical isolate 1766686, MHB, 0.002% polysorbate 80, 37 °C, daptomycin with 50 mg/L calcium chloride) [µg/mL]","MIC, Staphylococcus aureus NR 45914 ([2]; MDR strain NR 45914, MHB, 0.002% polysorbate 80, 37 °C, daptomycin with 50 mg/L calcium chloride) [µg/mL]","MIC, Staphylococcus aureus NR 45926 ([2]; MDR strain NR 45926, MHB, 0.002% polysorbate 80, 37 °C, daptomycin with 50 mg/L calcium chloride) [µg/mL]","MIC, Staphylococcus aureus NR 45930 ([2]; MDR strain NR 45930, MHB, 0.002% polysorbate 80, 37 °C, daptomycin with 50 mg/L calcium chloride) [µg/mL]","MIC, Staphylococcus aureus NR 46062 ([2]; MDR strain NR 46062, MHB, 0.002% polysorbate 80, 37 °C, daptomycin with 50 mg/L calcium chloride) [µg/mL]",halo distortion on addition of lipid II [3],MIC (MRSA ATCC 33591 [4]) [µg/mL],"MIC ([1]; read-out: MIC, Enterococcus faecium 1563254) [µg/mL]","MIC ([1]; read-out: MIC, Enterococcus faecium 1581582) [µg/mL]","MIC ([1]; read-out: MIC, Enterococcus faecium 1766686) [µg/mL]","MIC ([2]; read-out: MIC, Staphylococcus aureus NR 45914) [µg/mL]","MIC ([2]; read-out: MIC, Staphylococcus aureus NR 45926) [µg/mL]","MIC ([2]; read-out: MIC, Staphylococcus aureus NR 45930) [µg/mL]","MIC ([2]; read-out: MIC, Staphylococcus aureus NR 46062) [µg/mL]",time to similar bacterial killing (MRSA ATCC 33591 [5]) [h]
CCCCCCCCCC(=O)N[C@@H](Cc1c[nH]c2ccccc12)C(=O)N[C@H](CC(N)=O)C(=O)N[C@@H](CC(=O)O)C(=O)N[C@@H]1C(=O)NCC(=O)N[C@@H](CCCN)C(=O)N[C@@H](CC(=O)O)C(=O)N[C@H](C)C(=O)N[C@@H](CC(=O)O)C(=O)NCC(=O)N[C@H](CO)C(=O)N[C@@H]([C@H](C)CC(=O)O)C(=O)N[C@@H](CC(=O)c2ccccc2N)C(=O)O[C@@H]1C [Daptomycin],>32,>32,>32,2,4,2,2,maintained a distinct circular inhibition zone,–,–,–,–,–,–,–,–,–
CN[C@H](CC(C)C)C(=O)N[C@H]1C(=O)N[C@@H](CC(N)=O)C(=O)N[C@H]2C(=O)N[C@H]3C(=O)N[C@H](C(=O)N[C@H](C(=O)O)c4cc(O)cc(O)c4-c4cc3ccc4O)[C@H](O)c3ccc(c(Cl)c3)Oc3cc2cc(c3O[C@@H]2O[C@H](CO)[C@@H](O)[C@H](O)[C@H]2O[C@H]2C[C@](C)(N)[C@H](O)[C@H](C)O2)Oc2ccc(cc2Cl)[C@H]1O [Vancomycin],–,–,–,–,–,–,–,–,0.5 to 1,> 32,> 32,> 32,1,0.5,1,2,24
